The source of these data is US20070259837A1, “Use of Non-Glucocorticoid Steroids for the Treatment of Muscular Dystrophy” (SANTHERA PHARMACEUTICALS (SCHWEIZ) AG, priority 2004, published 2007).

The subject of assay [1] is utrophin protein in human muscle cells derived from DMD patients. To be noted: cited from earlier work; for increase of utrophin protein content in human muscle cells (reported for glucocorticoids): Courdier-Fruh et al. 2002.
The test system is the same in assay [2]. Kind of assay: Cell-based ELISA for normalized utrophin protein level in primary human myotube cultures. To be noted: for % UTR vs. PDN (normalized utrophin protein as % of PDN-treated sister cultures): same experiment; for activity at 0.5 µM: Myotube, read-out: % UTR vs. DMSO (normalized utrophin protein over DMSO-solvent treated control). The protocol: The method used to detect and determine utrophin-inducing activity of non-glucocorticoid steroids has been described previously (Courdier-Fruh, I., Barman, L., Briguet, A. & Meier, T.; 2002, Neuromuscul. Disord.; 12 Suppl:S95). Briefly, primary human muscle cell cultures were prepared according to standard protocols (Askanas V, Kwan H, Alvarez R B, Engel W K, Kobayashi T, Martinuzzi A, Hawkins E F., 1987, J Neurocytol., 16:523-537). Test compounds and the glucocorticoid 6α-methylprednisolone-21 sodium succinate (Pharmacia & Upjohn; Solu-Medrol®, PDN) as reference compound were applied at 500 nM final concentration as soon as myoblasts started to differentiate into myotubes. Incubation with the test compound was ended as soon as well differentiated myotubes have formed, typically resulting in an incubation time with a test compound for 3-7 days.
Normalized concentrations of utrophin protein in human muscle cells cultured in microtiter plates were determined by a cell-based enzyme-linked immunosorbent assay (ELISA) procedure that allows a successive readout for the cell density and utrophin protein level. For calibration, the cell density and differentiation was determined by absorbance measurements of the total dehydrogenase enzyme activity in each well using the colorimetric CellTiter 96®AQ One Solution Reagent Proliferation Assay (Promega) according to the manufacturer's recommendation. Subsequently, cells were fixed, washed, permeabilized with 0.5% (v/v) Triton X-100 and unspecific antibody binding-sites were blocked by standard procedures. Utrophin protein levels were determined immunologically with utrophin-specific primary antibodies (mouse monoclonal antibody to the amino terminal portion of utrophin, NCL-DRP2, Novocastra Laboratories) and with appropriate peroxidase-coupled secondary antibodies using QuantaBlu™ Fluorogenic Peroxidase Substrate Kit (Pierce) for detection. Fluorescence measurements were carried out with a multilabel counter (Wallac) at λex=325 nm and at λem=420 nm. The primary readout of this signal is presented in arbitrary units. For calibration, the arbitrary units representing the relative utrophin protein content of each well were divided by the corresponding cell-titer absorbance value to correct for cell density. For comparison between experiments, the cell-titer corrected readout for utrophin protein content in each well was expressed in percent of solvent treated control cultures (set to 100%). PDN was included in all experiments as reference glucocorticoid, N=3-5 for each compound tested.
Non-glucocorticoid test compounds, applied in a concentration of 500 nM, were regarded as “positive” in case the increase in the level of utrophin protein was at least 20% (mean value) over control cultures treated with the appropriate dilution of DMSO solvent as control and containing no test compound.
A range of different pharmaceutical compounds were tested for their ability to increase levels of utrophin protein in primary human myotube cultures. The cell-based ELISA protocol used to detect the level of utrophin protein is provided above and described in Courdier-Fruh, I., Barman, L., Briguet, A. & Meier, T, 2002, Neuromuscul. Disord.: 12, Suppl:S95. Briefly, fixed and permeabilized human muscle cells derived from DMD patients and cultured in 96-well cell culture plates were incubated with antibodies specific for utrophin at a dilution of 1:1'000 in blocking solution (phosphate buffered saline (PBS) supplemented with 2% fetal calf serum and 1% bovine serum albumin) for 10-15 hours at 4° C. Following several washing steps with 0.1% Triton X-100 in PBS, peroxidase-coupled secondary antibodies diluted 1:3'000 in blocking solution were applied in each well for 1-2 hours at room temperature. Signal detection, data acquisition and normalization was performed as described above and in Courdier-Fruh, I., Barman, L., Briguet, A. & Meier, T, 2002, Neuromuscul. Disord.: 12, Suppl:S95. […]
In general terms: An ELISA detects its analyte on a solid surface through an enzyme-linked reagent.

[3] abbreviates: 500 nM compound, human muscle cultures, mean value, N=3-6.

Read-outs that look alike come from different tables or passages of the source.

On to `C[C@H]1C[C@@H]2[C@H]([C@@H](O)C[C@@]3(C)[C@H]2CC[C@]3(O)C(=O)CO)[C@@]2(C)C=CC(=O)C=C12` [α-methylprednisolone], for which the “increase of utrophin protein content in human muscle cells (reported for glucocorticoids)” value (from here on “increase … (reported for glucocorticoids)”) in assay [1] is on record as “increase of utrophin protein content”.

Turning to `CC(=O)C1CCC2C3C[C@@H]4O[C@@]45C[C@@H](O)CC[C@]5(C)C3CC[C@]12C` (some centres unmarked) [Example 64], the “% UTR vs. PDN (normalized utrophin protein as % of PDN-treated sister cultures)” value in assay [2] (setting [3]) came out at 97%. Also, the activity at 0.5 µM in assay [2] (Homo sapiens) was 127%.

Take `CC1(C)O[C@@H]2C[C@H]3[C@@H]4CCC5=CC(=O)CC[C@]5(C)[C@@]4(F)[C@@H](O)C[C@]3(C)[C@]2(C(=O)CCl)O1` [halcinonide]: the “increase … (reported for glucocorticoids)” value in assay [1] was “increase of utrophin protein content”.

For `CCOC(=O)[C@H]1CCC2C3CC=C4C[C@@H](OC(=O)c5ccccc5)CC[C@]4(C)C3CC[C@@]21C` (some centres unmarked) [Example 17], the “% UTR vs. PDN (normalized utrophin protein as % of PDN-treated sister cultures)” value in assay [2] (setting [3]) is on record as 103%. Moreover, the activity at 0.5 µM in assay [2] (Homo sapiens) turned out to be 120%.

Take `C[C@]12CCC3c4ccc(OC(=O)c5ccccc5)cc4CCC3C1CCC2=O` (some centres unmarked) [Example 74]: the “% UTR vs. PDN (normalized utrophin protein as % of PDN-treated sister cultures)” value in assay [2] (setting [3]) was found to be 103%. The activity at 0.5 µM in assay [2] (Homo sapiens) came to 124%.

`C#C[C@]1(OC(C)=O)CC[C@H]2[C@@H]3CCC4=CC(=O)CC[C@@H]4[C@H]3CC[C@@]21C` [Example 42, Norethisterone acetate]: in assay [2] (setting [3]), the “% UTR vs. PDN (normalized utrophin protein as % of PDN-treated sister cultures)” value amounted to 101% and the activity at 0.5 µM turned out to be 128%.

For `CC(C)CCCC(C)[C@H]1CCC2C3=CC[C@H]4C[C@@H](O)CC[C@]4(C)C3CC[C@@]21C` (some centres unmarked) [Example 33], the “% UTR vs. PDN (normalized utrophin protein as % of PDN-treated sister cultures)” value in assay [2] (setting [3]) stood at 99%. Further, in assay [2] (Homo sapiens), the activity at 0.5 µM is 125%.

`CC(C)=CCCC(C)[C@H]1CC[C@@]2(C)C3=C(CC[C@]12C)[C@@]1(C)CC[C@H](O)C(C)(C)C1CC3` (some centres unmarked) [Example 37, Lanosterol]: the “% UTR vs. PDN (normalized utrophin protein as % of PDN-treated sister cultures)” value in assay [2] (setting [3]) worked out at 102%. Besides, the activity at 0.5 µM in assay [2] (Homo sapiens) turned out to be 123%.

As for Norethisterone [Example 40], in assay [2] (setting [3]), the “% UTR vs. DMSO (normalized utrophin protein over DMSO-solvent treated control)” value is reported as 134% and the “% UTR vs. PDN (normalized utrophin protein as % of PDN-treated sister cultures)” value came out at 106%.

`CC(CCC(=O)O)C1CCC2C3CC[C@@H]4C[C@H](O)CC[C@]4(C)C3CC[C@]12C` (some centres unmarked) [Example 9]: in assay [2] (setting [3]), the “% UTR vs. PDN (normalized utrophin protein as % of PDN-treated sister cultures)” value was 98% and the activity at 0.5 µM stood at 119%.

For the molecule `C[C@H]1C[C@@H]2[C@H]([C@@H](O)C[C@@]3(C)[C@H]2CC[C@]3(O)C(=O)COC(=O)CCC(=O)[O-])[C@@]2(C)C=CC(=O)C=C12.[Na+]` [PDN, 6α-methylprednisolone-21 sodium succinate, reference compound], in assay [2] (human DMD-patient derived muscle cells, 500 nM, FIG. 1 / FIG. 2, N=5-6), the “utrophin protein levels normalized to cell density (UTR, relative units) compared to solvent-treated control (DMSO)” value is given as “up to 200%”. Moreover, in assay [1] (simultaneous exposure to RU38468, previous experiments (Courdier-Fruh 2002)), the “inhibition of PDN-mediated utrophin increase by RU38486” value was “could be inhibited”.

For `CC(CCC(=O)O)C1CCC2C3CC[C@@H]4CC(=O)CC[C@]4(C)C3CC[C@]12C` (some centres unmarked) [Example 8], in assay [2] (setting [3]), the “% UTR vs. PDN (normalized utrophin protein as % of PDN-treated sister cultures)” value was found to be 99% and the activity at 0.5 µM turned out to be 120%.

Take `CC(C)CCCC(C)[C@H]1CCC2C3CC[C@H]4C[C@H](O)CC[C@]4(C)C3CC[C@@]21C` (some centres unmarked) [Example 34]: the “% UTR vs. PDN (normalized utrophin protein as % of PDN-treated sister cultures)” value in assay [2] (setting [3]) was found to be 97%. For the same molecule, in assay [2] (Homo sapiens), the activity at 0.5 µM came to 125%.

On to `C[C@]12CCC3c4ccc(OC(=O)c5ccccc5)cc4CCC3C1C[C@@H](O)[C@@H]2O` (some centres unmarked) [Example 78], for which the “% UTR vs. PDN (normalized utrophin protein as % of PDN-treated sister cultures)” value in assay [2] (setting [3]) is listed as 99%. For the same molecule, the activity at 0.5 µM in assay [2] (Homo sapiens) amounted to 124%.

Consider `CC(=O)O[C@@H]1C[C@]2(C)C(C3=CC(=O)OC3)CC[C@]2(O)C2CC[C@@H]3C[C@@H](O)CC[C@]3(C)C21` (some centres unmarked) [Example 83], for which, in assay [2] (setting [3]), the “% UTR vs. PDN (normalized utrophin protein as % of PDN-treated sister cultures)” value worked out at 99%. In assay [2] (Homo sapiens), the activity at 0.5 µM was 121%.

Regarding `CC(C)C/C=C\C(C)[C@H]1CC[C@@]2(C)C3=CC=C4C(C)(C)[C@@H](O)CC[C@]4(C)C3CC[C@]12C` (some centres unmarked) [Example 36], the “% UTR vs. PDN (normalized utrophin protein as % of PDN-treated sister cultures)” value in assay [2] (setting [3]) is reported as 96%. The activity at 0.5 µM in assay [2] (Homo sapiens) was 122%.

Regarding `CC(=O)OCC(=O)C1=CCC2C3CC[C@H]4C[C@@H](OC(C)=O)CC[C@]4(C)C3CC[C@]12C` (some centres unmarked) [Example 59], the “% UTR vs. PDN (normalized utrophin protein as % of PDN-treated sister cultures)” value in assay [2] (setting [3]) was found to be 102%. For the same molecule, the activity at 0.5 µM in assay [2] (Homo sapiens) is 121%.

In the case of `C[C@]12CCC3c4ccc(O)cc4C=CC3C1CCC2=O` (some centres unmarked) [Example 80], in assay [2] (setting [3]), the “% UTR vs. PDN (normalized utrophin protein as % of PDN-treated sister cultures)” value worked out at 96% and the activity at 0.5 µM is 125%.

For the molecule `CC1CC[C@@]2(OC1)O[C@H]1C[C@H]3[C@@H]4CC[C@H]5C[C@@H](OC(=O)c6ccccc6)CC[C@]5(C)C4=CC[C@]3(C)C1[C@@H]2C` (some centres unmarked) [Example 22], in assay [2] (setting [3]), the “% UTR vs. PDN (normalized utrophin protein as % of PDN-treated sister cultures)” value is 106%. Moreover, the activity at 0.5 µM in assay [2] (Homo sapiens) is 123%.

As to `C#C[C@]1(OC(C)=O)CCC2C3CCC4=C[C@@H](OC(C)=O)CC[C@@H]4C3CC[C@@]21C` (some centres unmarked) [Example 45], in assay [2] (setting [3]), the “% UTR vs. PDN (normalized utrophin protein as % of PDN-treated sister cultures)” value worked out at 99% and the activity at 0.5 µM worked out at 130%.

Regarding `CC1(C)O[C@@H]2C[C@H]3[C@@H]4C[C@H](F)C5=CC(=O)C=C[C@]5(C)[C@@]4(F)[C@@H](O)C[C@]3(C)[C@]2(C(=O)CO)O1` [fluocinolone acetonide], in assay [1], the “increase … (reported for glucocorticoids)” value is “increase of utrophin protein content”.

For the molecule `CC(=O)Oc1ccc2c(c1)CCC1C2CC[C@]2(C)C(=O)CCC12` (some centres unmarked) [Example 76, Estrone acetate], the “% UTR vs. PDN (normalized utrophin protein as % of PDN-treated sister cultures)” value in assay [2] (setting [3]) came out at 102%. Moreover, the activity at 0.5 µM in assay [2] (Homo sapiens) came to 129%.

As for `C[C@]12CC[C@H](OC(=O)c3ccccc3)CC1=CCC1C2CC[C@@]2(C)C1CC[C@@H]2NC(=O)c1ccccc1` (some centres unmarked) [Example 39], in assay [2] (setting [3]), the “% UTR vs. PDN (normalized utrophin protein as % of PDN-treated sister cultures)” value is recorded as 106%. Also, the activity at 0.5 µM in assay [2] (Homo sapiens) worked out at 121%.

Regarding `CC1CC[C@@]2(OC1)O[C@H]1C[C@H]3[C@@H]4CC[C@H]5C[C@@H](O)CC[C@]5(C)C4CC(=O)[C@]3(C)C1[C@@H]2C` (some centres unmarked) [Example 27], the “% UTR vs. PDN (normalized utrophin protein as % of PDN-treated sister cultures)” value in assay [2] (setting [3]) is listed as 97%. For the same molecule, the activity at 0.5 µM in assay [2] (Homo sapiens) was determined as 122%.

For the molecule `CC(=O)[C@@]1(O)CCC2C3CCC4=CC(=O)CC[C@]4(C)C3CC[C@@]21C` (some centres unmarked) [Example 66], in assay [2] (setting [3]), the “% UTR vs. PDN (normalized utrophin protein as % of PDN-treated sister cultures)” value is listed as 97% and the activity at 0.5 µM was determined as 127%.

On to `CC(C)CCCC(C)[C@H]1CCC2C3C(=O)C=C4C[C@@H](O)CC[C@]4(C)C3CC[C@@]21C` (some centres unmarked) [Example 31], for which the “% UTR vs. PDN (normalized utrophin protein as % of PDN-treated sister cultures)” value in assay [2] (setting [3]) came out at 109%. Moreover, the activity at 0.5 µM in assay [2] (Homo sapiens) was found to be 137%.

For the molecule `C[C@@H]1C[C@H]2[C@@H]3CCC4=CC(=O)C=C[C@]4(C)[C@@]3(F)[C@@H](O)C[C@]2(C)[C@@]1(O)C(=O)CO` [dexametasone], the “increase … (reported for glucocorticoids)” value in assay [1] is reported as “increase of utrophin protein content”.
